We go through 59 compounds from the Kinase Knowledgebase extract (Sharma et al. 2016).

As a reminder, the inhibition is the relative decrease from the control value, in per cent. The term IC50 denotes the point on the concentration scale where inhibition reaches its midpoint. Higher therefore signals weaker potency.

The structures appear in SMILES notation.

In experiment [1] the target is MAPK14 (human) (UniProt Q16539). As to the kind of experiment: Inhibition of MAPK14 Kinase Activity by PHAS-I Assay. Particulars: for inhibition: concentration not given here.
For experiment [2] the target is unchanged. In words: Inhibition of LPS Stimulated TNF Production by U937 Cells. As to conditions: for inhibition: concentration not given here.

Chain of MAPK14 (human) (Q16539 whole entry, looked up): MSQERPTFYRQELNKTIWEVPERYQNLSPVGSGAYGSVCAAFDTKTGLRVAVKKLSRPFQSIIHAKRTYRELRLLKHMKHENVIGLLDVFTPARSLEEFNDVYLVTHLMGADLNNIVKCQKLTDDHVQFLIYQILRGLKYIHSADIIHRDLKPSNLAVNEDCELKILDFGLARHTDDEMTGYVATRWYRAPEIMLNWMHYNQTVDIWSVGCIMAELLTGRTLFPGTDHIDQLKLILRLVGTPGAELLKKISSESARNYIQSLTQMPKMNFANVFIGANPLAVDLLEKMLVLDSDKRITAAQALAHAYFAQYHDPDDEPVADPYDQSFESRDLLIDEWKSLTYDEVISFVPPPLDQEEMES

In experiment [1], `Cc1c(-c2ccncc2)c(-c2ccc(F)cc2)nn1CC(=O)Nc1ccc(C2CCCCC2)cc1` displayed an inhibition of 87%. On the same count and under the same terms, for `Cc1c(-c2ccncc2)c(-c2ccc(F)cc2)nn1CC(=O)Nc1ccc(Cl)cc1` the value was 88%. As for `Cc1c(-c2ccncc2)c(-c2ccc(F)cc2)nn1CC(=O)NC1CCN(Cc2ccccc2)CC1`, the inhibition in experiment [1] came out at 70%. In experiment [1], `COC(=O)[C@H](COCc1ccccc1)NC(=O)Cn1nc(-c2ccc(F)cc2)c(-c2ccncc2)c1C` came in with an inhibition of 76%. For `Cc1cccc(C)c1NC(=O)NCCCc1[nH]nc(-c2ccc(F)cc2)c1-c1ccncc1`, in experiment [1], the inhibition worked out at 88%. In the case of `Cc1c(-c2ccncc2)c(-c2ccc(F)cc2)nn1CC(=O)N1CCSC1c1ccco1` (centres undefined), the inhibition in experiment [1] turned out to be 78%. Still for that read-out and setting: for `Cc1ccc(S(=O)(=O)NCCCc2[nH]nc(-c3ccc(F)cc3)c2-c2ccncc2)cc1` the value was 68%. `CN(C)C(=O)NCCCc1[nH]nc(-c2ccc(F)cc2)c1-c1ccncc1` displayed an inhibition in experiment [1] of 90%. In experiment [1], `CC[C@H](C)[C@H](NC(=O)Cn1nc(-c2ccc(F)cc2)c(-c2ccncc2)c1C)C(=O)OC` registered an inhibition of 38%.

For the compound `Cc1c(-c2ccncc2)c(-c2ccc(F)cc2)nn1CC(=O)NCC(=O)Nc1ccccc1`, the inhibition in experiment [1] is 86%. Take `Cc1c(-c2ccncc2)c(-c2ccc(F)cc2)nn1CC(=O)Nc1ccccc1C(F)(F)F`: in experiment [1], the inhibition was found to be 86%. `CC(C)(N)Cc1[nH]nc(-c2ccc(F)cc2)c1-c1ccncc1`: the half-maximal inhibitory concentration (IC50) in experiment [1] amounted to 0.11 µM. This counts as sub-micromolar. In experiment [1], `O=C(NCCCc1[nH]nc(-c2ccc(F)cc2)c1-c1ccncc1)NCCc1ccccc1` came in with an inhibition of 82%.

`O=C(NCCCc1[nH]nc(-c2ccc(F)cc2)c1-c1ccncc1)c1ccccc1` came in with an inhibition in experiment [1] of 78%. In turn, `C[C@H](NC(=O)c1ccccc1F)c1[nH]nc(-c2ccc(F)cc2)c1-c1ccncc1` showed an inhibition in experiment [2] of 31%. In the case of `Cc1nn(C)c(-c2ccc(Cl)cc2)c1-c1ccncc1`, the IC50 in experiment [2] was found to be 2.7 µM. `Cc1ccc(S(=O)(=O)N2CCC(c3[nH]nc(-c4ccc(F)cc4)c3-c3ccncc3)CC2)cc1` showed an inhibition in experiment [2] of 14%. In experiment [2], `O=C(NCc1[nH]nc(-c2ccc(F)cc2)c1-c1ccncc1)N[C@@H]1C[C@@H]1c1ccccc1` displayed an inhibition of 21%. In turn, `O=S(=O)(NCc1[nH]nc(-c2ccc(F)cc2)c1-c1ccncc1)c1cccc(Br)c1` yielded an inhibition in experiment [2] of 90%. In turn, `O=C(c1ccccn1)N1CCC(c2[nH]nc(-c3ccc(F)cc3)c2-c2ccncc2)CC1` came in with an IC50 in experiment [2] of 0.25 µM. In turn, `Cc1ccccc1C(=O)NCc1[nH]nc(-c2ccc(F)cc2)c1-c1ccncc1` showed an inhibition in experiment [2] of 11%. The same measure, in the same setting: in the case of `Cc1ccccc1C(=O)N[C@@H](C)c1[nH]nc(-c2ccc(F)cc2)c1-c1ccncc1` it was 34%. `Fc1ccc(-c2n[nH]cc2-c2ccnc3ccccc23)cc1`: the IC50 in experiment [2] turned out to be 1.13 µM.

Turning to `C[C@H](NS(=O)(=O)c1cccc(Cl)c1)c1[nH]nc(-c2ccc(F)cc2)c1-c1ccncc1`, the inhibition in experiment [2] amounted to 93%. Compound `Cc1ccc(S(C)(=O)=O)cc1S(=O)(=O)N[C@@H](C)c1[nH]nc(-c2ccc(F)cc2)c1-c1ccncc1` came in with an inhibition in experiment [2] of 78%. The same measure, in the same setting: in the case of `N#Cc1cccc(S(=O)(=O)N2CCC(c3[nH]nc(-c4ccc(F)cc4)c3-c3ccncc3)CC2)c1` it was 14%. Take `NS(=O)(=O)c1ccc(CNC(=O)NCCCc2[nH]nc(-c3ccc(F)cc3)c2-c2ccncc2)cc1`: in experiment [2], the half-inhibitory concentration (IC50) is > 1 µM. The compound `CN(C)CCn1cc(-c2ccnc(NCc3ccc(F)cc3)c2)c(-c2ccc(F)cc2)n1` returned an IC50 in experiment [2] of 0.92 µM. As for `C[C@@H](NC(=O)C1CCCC1)c1[nH]nc(-c2ccc(F)cc2)c1-c1ccncc1`, in experiment [2], the inhibition worked out at 12%. On to `O=S(=O)(NCc1[nH]nc(-c2ccc(F)cc2)c1-c1ccncc1)c1ccc(F)c(Cl)c1`, for which the inhibition in experiment [2] was found to be 78%.

For `CCS(=O)(=O)N1CCC(c2[nH]nc(-c3ccc(F)cc3)c2-c2ccncc2)CC1`, the half-maximal inhibitory concentration (IC50) in experiment [2] was 0.25 µM. This lies in the sub-micromolar range. Compound `O=C(NCc1[nH]nc(-c2ccc(F)cc2)c1-c1ccncc1)c1cc(F)cc(C(F)(F)F)c1` showed an inhibition in experiment [2] of 26%. On the same count and under the same terms, for `COc1ccccc1CCNC(=O)Cn1nc(-c2ccc(F)cc2)c(-c2ccncc2)c1C` the value was 36%; for `C[C@@H](NC(=O)c1c(Cl)cccc1Cl)c1[nH]nc(-c2ccc(F)cc2)c1-c1ccncc1`, 87%; for `C[C@@H](NC(=O)N1CCOCC1)c1[nH]nc(-c2ccc(F)cc2)c1-c1ccncc1`, 30%. On the same count and under the same terms, in the case of `C[C@@H](NC(=O)c1ccccc1F)c1[nH]nc(-c2ccc(F)cc2)c1-c1ccncc1` it was 75%. As to `CN(C)CCn1cc(-c2ccncc2)c(-c2ccc(F)cc2)n1`, the IC50 in experiment [2] came out at 0.254 µM. Compound `Cc1n[nH]c(-c2ccc(F)c(F)c2)c1-c1ccncc1` came in with an IC50 in experiment [2] of 0.329 µM. Take `C[C@@H](NC(=O)c1ccccc1Br)c1[nH]nc(-c2ccc(F)cc2)c1-c1ccncc1`: the inhibition in experiment [2] was found to be 87%. `O=C(NCc1[nH]nc(-c2ccc(F)cc2)c1-c1ccncc1)[C@@H]1CCCN1C(=O)OCC1c2ccccc2-c2ccccc21` came in with an inhibition in experiment [2] of 55%.

In experiment [2], `COc1cc(NC(=O)CCNC(=O)Cn2nc(-c3ccc(F)cc3)c(-c3ccncc3)c2C)cc2ccccc12` had an IC50 of 4.22 µM. Consider `O=C(NCc1[nH]nc(-c2ccc(F)cc2)c1-c1ccncc1)c1cccs1`, for which the half-inhibitory concentration (IC50) in experiment [2] was > 1 µM. `CCCCS(=O)(=O)NCc1[nH]nc(-c2ccc(F)cc2)c1-c1ccncc1` displayed a concentration for half-maximal inhibition (IC50) in experiment [2] of 5 µM.

With `Cc1ccc(S(=O)(=O)N[C@@H](Cc2ccccc2)C(=O)N[C@@H](C)c2[nH]nc(-c3ccc(F)cc3)c2-c2ccncc2)cc1`, the inhibition in experiment [2] was found to be 31%. Still for that read-out and setting: in the case of `Cc1ccc(C)c(S(=O)(=O)NCCCc2[nH]nc(-c3ccc(F)cc3)c2-c2ccncc2)c1` it was 36%.

For `O=S(=O)(NCc1[nH]nc(-c2ccc(F)cc2)c1-c1ccncc1)c1cc(Cl)cc(Cl)c1`, the inhibition in experiment [2] was determined as 45%. Still for that read-out and setting: in the case of `C[C@@H](NC(=O)N(C)c1ccccc1)c1[nH]nc(-c2ccc(F)cc2)c1-c1ccncc1` it was 30%; in that of `CNC(=O)CC[C@H](NS(=O)(=O)c1ccccc1F)c1[nH]nc(-c2ccc(F)cc2)c1-c1ccncc1`, 1%; in that of `C[C@@H](NC(=O)C1CCC1)c1[nH]nc(-c2ccc(F)cc2)c1-c1ccncc1`, 19%.

For `CN(C)S(=O)(=O)NCc1[nH]nc(-c2ccc(F)cc2)c1-c1ccncc1`, the inhibition in experiment [2] was 18%. In turn, `C[C@@H](NS(=O)(=O)c1ccc(Cl)s1)c1[nH]nc(-c2ccc(F)cc2)c1-c1ccncc1` gave an inhibition in experiment [2] of 95%. Compound `C[C@H](NC(=O)N(C)c1ccccc1)c1[nH]nc(-c2ccc(F)cc2)c1-c1ccncc1` registered an inhibition in experiment [2] of 51%.

Regarding `CN(C)c1n[nH]c(-c2ccc(F)cc2)c1-c1ccncc1`, the IC50 in experiment [2] was found to be 0.484 µM.

As to `O=C(N[C@H](Cc1ccccc1)c1[nH]nc(-c2ccc(F)cc2)c1-c1ccncc1)c1ccc(F)cc1`, the IC50 in experiment [2] was > 1 µM. On to `O=C(c1ccc(Br)cc1)N1CCC(c2[nH]nc(-c3ccc(F)cc3)c2-c2ccncc2)CC1`, for which, in experiment [2], the concentration for half-maximal inhibition (IC50) turned out to be 1.38 µM. As for `C[C@H](NC(=O)NCc1ccccc1)c1[nH]nc(-c2ccc(F)cc2)c1-c1ccncc1`, the IC50 in experiment [2] was 0.84 µM. This IC50 is about 1.6-fold lower than that of the compound before. `C[C@@H](NC(=O)C(C)(C)C)c1[nH]nc(-c2ccc(F)cc2)c1-c1ccncc1`: in experiment [2], the inhibition is 32%. For the compound `C[C@H](NC(=O)N1CCCC1)c1[nH]nc(-c2ccc(F)cc2)c1-c1ccncc1`, the IC50 in experiment [2] was found to be 2.17 µM. In experiment [2], `C[C@@H](NS(=O)(=O)c1ccccc1C(F)(F)F)c1[nH]nc(-c2ccc(F)cc2)c1-c1ccncc1` returned an inhibition of 70%.
